Test results published in patent US9592221B2, “Antibacterial agents: aryl myxopyronin derivatives” (priority 2012, dated 2017).

What was measured:
[1] = molecular target: E. coli RNA polymerase σ^70 holoenzyme (Escherichia coli, UniProt P0A8T7+P0A8V2); assay: Fluorescence-detected RNA polymerase assay, E. coli RNA polymerase; type: biochemical; conditions: read-out: IC50 E. coli RNAP
[2] = molecular target: S. aureus RNA polymerase core enzyme, S. aureus σ^A (Staphylococcus aureus, UniProt P47768+Q2G0N5); assay: Fluorescence-detected RNA polymerase assay, S. aureus RNA polymerase; type: biochemical; conditions: read-out: IC50 S. aureus RNAP
[3] = molecular target: M. tuberculosis RNA polymerase core enzyme, M. tuberculosis σ^A (Mycobacterium tuberculosis, UniProt P9WGY7+P9WGY9); assay: Fluorescence-detected RNA polymerase assay, M. tuberculosis RNA polymerase; type: biochemical; conditions: read-out: IC50 M. tuberculosis RNAP
Chain of M. tuberculosis RNA polymerase core enzyme, M. tuberculosis σ^A (P9WGI1 whole entry): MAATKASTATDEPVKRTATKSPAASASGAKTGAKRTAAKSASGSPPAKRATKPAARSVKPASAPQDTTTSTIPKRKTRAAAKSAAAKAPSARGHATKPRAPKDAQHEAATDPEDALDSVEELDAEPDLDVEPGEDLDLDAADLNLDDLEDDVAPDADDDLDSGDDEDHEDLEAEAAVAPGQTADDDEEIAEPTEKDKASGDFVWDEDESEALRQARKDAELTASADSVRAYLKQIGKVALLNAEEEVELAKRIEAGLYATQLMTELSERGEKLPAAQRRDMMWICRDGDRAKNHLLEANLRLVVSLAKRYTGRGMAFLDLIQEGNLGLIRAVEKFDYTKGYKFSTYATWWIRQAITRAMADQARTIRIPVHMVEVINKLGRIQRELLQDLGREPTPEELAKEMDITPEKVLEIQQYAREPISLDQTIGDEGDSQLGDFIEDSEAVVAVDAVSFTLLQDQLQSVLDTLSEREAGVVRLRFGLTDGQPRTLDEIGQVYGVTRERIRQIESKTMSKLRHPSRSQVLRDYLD
Chain of M. tuberculosis RNA polymerase core enzyme, M. tuberculosis σ^A (P9WGY5 whole entry, further chain): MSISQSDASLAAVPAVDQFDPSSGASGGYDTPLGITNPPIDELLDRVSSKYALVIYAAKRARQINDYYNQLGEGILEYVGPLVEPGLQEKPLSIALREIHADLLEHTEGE
Chain of M. tuberculosis RNA polymerase core enzyme, M. tuberculosis σ^A (P9WGY7 whole entry): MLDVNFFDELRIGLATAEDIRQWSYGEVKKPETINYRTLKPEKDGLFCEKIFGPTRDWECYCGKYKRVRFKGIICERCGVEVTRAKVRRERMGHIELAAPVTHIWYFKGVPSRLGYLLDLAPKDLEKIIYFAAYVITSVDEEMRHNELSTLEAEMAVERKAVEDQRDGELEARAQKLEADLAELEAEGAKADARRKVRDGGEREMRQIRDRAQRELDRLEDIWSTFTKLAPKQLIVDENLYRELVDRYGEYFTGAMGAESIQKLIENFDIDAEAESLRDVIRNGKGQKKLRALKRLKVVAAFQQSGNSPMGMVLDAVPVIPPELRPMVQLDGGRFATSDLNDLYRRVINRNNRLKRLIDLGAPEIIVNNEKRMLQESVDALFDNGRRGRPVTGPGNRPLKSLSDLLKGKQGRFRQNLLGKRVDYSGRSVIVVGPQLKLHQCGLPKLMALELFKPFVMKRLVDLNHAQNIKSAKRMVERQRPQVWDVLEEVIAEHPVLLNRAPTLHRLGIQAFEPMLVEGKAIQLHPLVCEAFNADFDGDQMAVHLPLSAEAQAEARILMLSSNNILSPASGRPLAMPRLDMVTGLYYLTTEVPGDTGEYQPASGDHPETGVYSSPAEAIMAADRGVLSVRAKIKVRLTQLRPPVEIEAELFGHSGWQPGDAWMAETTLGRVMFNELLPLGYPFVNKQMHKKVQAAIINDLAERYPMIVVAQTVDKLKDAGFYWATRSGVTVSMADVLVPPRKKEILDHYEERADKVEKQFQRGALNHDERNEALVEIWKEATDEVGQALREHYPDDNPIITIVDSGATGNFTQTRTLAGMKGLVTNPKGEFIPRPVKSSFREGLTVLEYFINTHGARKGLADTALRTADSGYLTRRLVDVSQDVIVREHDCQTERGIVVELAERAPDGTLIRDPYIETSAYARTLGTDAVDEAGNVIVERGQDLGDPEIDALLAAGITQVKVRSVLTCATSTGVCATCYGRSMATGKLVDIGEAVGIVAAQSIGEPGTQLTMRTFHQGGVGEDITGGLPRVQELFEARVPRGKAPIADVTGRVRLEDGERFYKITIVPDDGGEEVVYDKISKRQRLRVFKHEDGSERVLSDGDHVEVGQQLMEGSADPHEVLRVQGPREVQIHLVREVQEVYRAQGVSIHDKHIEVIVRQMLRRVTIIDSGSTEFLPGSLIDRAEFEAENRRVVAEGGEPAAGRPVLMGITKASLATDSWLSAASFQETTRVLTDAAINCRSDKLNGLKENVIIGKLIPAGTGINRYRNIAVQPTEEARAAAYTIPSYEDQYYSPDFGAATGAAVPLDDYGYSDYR
Chain of M. tuberculosis RNA polymerase core enzyme, M. tuberculosis σ^A (P9WGY9 whole entry): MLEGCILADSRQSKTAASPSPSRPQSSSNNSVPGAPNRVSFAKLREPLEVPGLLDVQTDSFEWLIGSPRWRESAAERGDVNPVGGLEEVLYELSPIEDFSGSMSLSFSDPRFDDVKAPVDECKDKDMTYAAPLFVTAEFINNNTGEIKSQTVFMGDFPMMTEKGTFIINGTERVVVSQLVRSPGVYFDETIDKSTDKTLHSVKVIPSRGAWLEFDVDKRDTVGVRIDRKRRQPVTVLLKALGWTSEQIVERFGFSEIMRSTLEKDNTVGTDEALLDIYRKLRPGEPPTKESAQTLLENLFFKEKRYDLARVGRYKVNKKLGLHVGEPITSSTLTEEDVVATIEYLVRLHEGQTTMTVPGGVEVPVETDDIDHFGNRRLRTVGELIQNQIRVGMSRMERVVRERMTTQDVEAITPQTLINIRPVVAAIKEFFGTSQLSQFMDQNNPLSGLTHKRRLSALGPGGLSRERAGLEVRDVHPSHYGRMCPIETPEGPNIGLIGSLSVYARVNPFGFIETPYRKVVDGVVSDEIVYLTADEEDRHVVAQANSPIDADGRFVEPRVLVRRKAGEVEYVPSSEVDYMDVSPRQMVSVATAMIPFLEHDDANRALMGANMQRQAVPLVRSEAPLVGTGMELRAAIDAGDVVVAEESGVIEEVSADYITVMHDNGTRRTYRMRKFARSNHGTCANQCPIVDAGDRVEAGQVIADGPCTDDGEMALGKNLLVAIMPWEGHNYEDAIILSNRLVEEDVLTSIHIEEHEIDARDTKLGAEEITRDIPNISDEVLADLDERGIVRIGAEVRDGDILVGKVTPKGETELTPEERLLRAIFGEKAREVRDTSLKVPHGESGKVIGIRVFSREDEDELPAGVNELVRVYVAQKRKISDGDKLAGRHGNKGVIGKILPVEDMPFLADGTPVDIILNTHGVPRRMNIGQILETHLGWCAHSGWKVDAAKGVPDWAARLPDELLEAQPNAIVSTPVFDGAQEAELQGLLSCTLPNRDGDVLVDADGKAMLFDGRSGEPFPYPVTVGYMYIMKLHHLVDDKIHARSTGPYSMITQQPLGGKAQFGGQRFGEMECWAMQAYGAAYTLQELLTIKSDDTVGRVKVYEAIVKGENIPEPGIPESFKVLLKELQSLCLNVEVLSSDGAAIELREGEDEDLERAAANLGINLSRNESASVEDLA
Chain of M. tuberculosis RNA polymerase core enzyme, M. tuberculosis σ^A (P9WGZ1 whole entry, further chain): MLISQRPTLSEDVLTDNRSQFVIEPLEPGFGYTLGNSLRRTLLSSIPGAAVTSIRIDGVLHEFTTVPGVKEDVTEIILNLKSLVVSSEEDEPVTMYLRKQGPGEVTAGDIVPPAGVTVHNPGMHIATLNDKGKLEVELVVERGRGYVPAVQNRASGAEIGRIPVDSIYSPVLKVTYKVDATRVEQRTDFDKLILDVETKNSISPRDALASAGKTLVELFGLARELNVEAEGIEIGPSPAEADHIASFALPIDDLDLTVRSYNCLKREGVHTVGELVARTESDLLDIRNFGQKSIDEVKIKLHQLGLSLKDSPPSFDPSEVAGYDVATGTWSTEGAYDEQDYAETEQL

[4] = tested on: Staphylococcus aureus ATCC 12600; assay: MIC, spiral gradient endpoint assay, S. aureus ATCC 12600; type: cell-based; conditions: ATCC12600; Staphylococcus aureus ATCC 12600
[5] = tested on: Acinetobacter baumannii ATCC 19606; assay: MIC, spiral gradient endpoint assay, A. baumannii; type: cell-based; conditions: ATCC19606; Acinetobacter baumannii ATCC 19606
[6] = tested on: Escherichia coli D21f2tolC; assay: MIC, spiral gradient endpoint assay, E. coli D21f2tolC; type: cell-based; conditions: Escherichia coli, D21F2TOLC, read-out: MIC E. coli D21f2toIC
[7] = tested on: Mycobacterium tuberculosis H37Rv; assay: MIC, microplate Alamar Blue assay, M. tuberculosis; type: cell-based
[8] = tested on: Bacillus anthracis Vollum 1b; assay: microbe, parasite or virus in culture; type: cell-based; conditions: Bacillus anthracis, VOLLUM1B, read-out: MIC B. anthracis Vollum-1b
[9] = tested on: Francisella tularensis SCHU4; assay: microbe, parasite or virus in culture; type: cell-based; conditions: Francisella tularensis, SCHU4, read-out: MIC F. tularensis SCHU4
[10] = tested on: Yersinia pestis C092; assay: microbe, parasite or virus in culture; type: cell-based; conditions: Yersinia pestis, C092, read-out: MIC Y. pestis C092
[11] = tested on: Burkholderia mallei CHN7; assay: microbe, parasite or virus in culture; type: cell-based; conditions: Burkholderia mallei, CHN7, read-out: MIC B. mallei CHN7
[12] = tested on: Burkholderia pseudomallei Human/Blood/OH/US/1994; assay: microbe, parasite or virus in culture; type: cell-based; conditions: Burkholderia pseudomallei, read-out: MIC B. pseudomallei Human/Blood/OH
[13] = tested on: Brucella melitensis 16M; assay: microbe, parasite or virus in culture; type: cell-based; conditions: Brucella melitensis, 16M, read-out: MIC B. melitensis 16M

Row | SMILES | IC50 [1] [nM] | IC50 [2] [nM] | IC50 [3] [nM] | MIC [4] [µg/mL] | MIC [5] [µg/mL] | MIC [6] [µg/mL] | MIC [7] [µg/mL] | MIC [8] [µg/mL] | MIC [9] [µg/mL] | MIC [10] [µg/mL] | MIC [11] [µg/mL] | MIC [12] [µg/mL] | MIC [13] [µg/mL]
1 | CCCCCCc1csc(C=C(C)C(=O)c2c(O)cc(C(C)CC/C=C/NC(=O)OC)oc2=O)c1C (mixture of isomers) [APY27, methyl (E)-5-(3-((E/Z)-3-(4-hexyl-3-methylthiophen-2-yl)-2-methylacryloyl)-4-hydroxy-2-oxo-2H-pyran-6-yl)hex-1-enylcarbamate] | 10 | 100 | 1000 | 6 | 20 | 0.3 | 10 | 3 | 3 | > 50 | 6 | 50 | 2
2 | CCCCCCc1coc(C=C(C)C(=O)c2c(O)cc(C(C)CC/C=C/NC(=O)OC)oc2=O)c1 (mixture of isomers) [APY19, methyl (E)-5-(3-((E/Z)-3-(4-hexylfuran-2-yl)-2-methylacryloyl)-4-hydroxy-2-oxo-2H-pyran-6-yl)hex-1-enylcarbamate] | 7 | 30 | 400 | 2 | 10 | 0.1 | 6 | 2 | 6 | 6 | 0.8 | 3 | 0.4
3 | COC(=O)N/C=C/CCC(C)c1cc(O)c(C(=O)C(C)=Cc2ccc(CCC(C)C)s2)c(=O)o1 (mixture of isomers) [APY31, methyl (E)-5-(4-hydroxy-3-((E/Z)-3-(5-isopentylthiophen-2-yl)-2-methylacryloyl)-2-oxo-2H-pyran-6-yl)hex-1-enylcarbamate] | 10 | 50 | 20 | 0.4 | 6 | < 0.3 | 3 | 0.4 | 6 | 10 | 2 | 6 | 0.8
4 | CCCCCCc1ccc(C=C(C)C(=O)c2c(O)cc(C(C)CC/C=C/NC(=O)OC)oc2=O)s1 (mixture of isomers) [APY15, methyl (E)-5-(3-((E/Z)-3-(5-hexylthiophen-2-yl)-2-methylacryloyl)-4-hydroxy-2-oxo-2H-pyran-6-yl)hex-1-enylcarbamate] | 5 | 20 | 200 | 0.9 | 6 | 0.08 | > 50 | 0.4 | 0.4 | 3 | 0.8 | 3 | 0.4
5 | CCCCc1ccc(C=C(CC)C(=O)c2c(O)cc(C(C)CC/C=C/NC(=O)OC)oc2=O)s1 (mixture of isomers) [APY21, methyl (E)-5-(3-((E/Z)-2-((5-butylthiophen-2-yl)methylene)butanoyl)-4-hydroxy-2-oxo-2H-pyran-6-yl)hex-1-enylcarbamate] | 40 | 500 | 300 | 2 | 20 | 0.3 | 10 | 3 | 3 | > 50 | 6 | 10 | 2
6 | CCCCc1ccc2cc(C=C(C)C(=O)c3c(O)cc(C(C)CC/C=C/NC(=O)OC)oc3=O)oc2c1 (mixture of isomers) [APY84, methyl ((1E)-5-(3-(3-(6-butylbenzofuran-2-yl)-2-methylacryloyl)-4-hydroxy-2-oxo-2H-pyran-6-yl)hex-1-en-1-yl)carbamate] | 2 | 60 | 20 | 3 | > 40 | 0.1 | 30 | – | – | – | – | – | –
7 | CCCCCCc1csc(C=C(C)C(=O)c2c(O)cc(C(C)CC/C=C/NC(=O)OC)oc2=O)c1 (mixture of isomers) [APY18, methyl (E)-5-(3-((E/Z)-3-(4-hexylthiophen-2-yl)-2-methylacryloyl)-4-hydroxy-2-oxo-2H-pyran-6-yl)hex-1-enylcarbamate] | 7 | 70 | 600 | 4 | 4 | 0.07 | 10 | 2 | 3 | 6 | 2 | 6 | 0.8
8 | COC(=O)N/C=C/CCC(C)c1cc(O)c(C(=O)C(C)=Cc2ccc(CCCC3CCCCC3)s2)c(=O)o1 (mixture of isomers) [APY32, methyl (E)-5-(3-((E/Z)-3-(5-(3-cyclohexylpropyl)thiophen-2-yl)-2-methylacryloyl)-4-hydroxy-2-oxo-2H-pyran-6-yl)hex-1-enylcarbamate] | 6 | 6 | 2000 | > 40 | > 40 | 0.4 | 6 | 2 | 0.8 | > 50 | 2 | 6 | 2
9 | CCCCCCc1ccc(C=C(C)C(=O)c2c(O)cc(C(C)CC/C=C/NC(=O)OC)oc2=O)o1 (mixture of isomers) [APY17, methyl (E)-5-(3-((E/Z)-3-(5-hexylfuran-2-yl)-2-methylacryloyl)-4-hydroxy-2-oxo-2H-pyran-6-yl)hex-1-enylcarbamate] | 20 | 100 | 900 | 8 | 10 | 0.1 | 10 | 2 | 0.8 | 10 | 3 | 30 | 2
10 | CCCCCCc1ccc(C=C(C)C(=O)c2c(O)cc(C(C)CC/C=C/NC(=O)OC)oc2=O)cc1 (mixture of isomers) [APY33, methyl (E)-5-(3-((E/Z)-3-(4-hexylphenyl)-2-methylacryloyl)-4-hydroxy-2-oxo-2H-pyran-6-yl)hex-1-enylcarbamate] | 8 | 10 | 400 | 2 | 20 | 0.3 | 6 | 2 | 3 | 6 | 2 | 6 | 0.4
11 | CCCCc1ccc(C=C(C)C(=O)c2c(O)cc(C(C)CC/C=C/NC(=O)OC)oc2=O)s1 (mixture of isomers) [APY16, methyl (E)-5-(3-((E/Z)-3-(5-butylthiophen-2-yl)-2-methylacryloyl)-4-hydroxy-2-oxo-2H-pyran-6-yl)hex-1-enylcarbamate] | 30 | 100 | 300 | 0.6 | 20 | 0.1 | 30 | 2 | 0.8 | 10 | 2 | 6 | 0.8
12 | CCCCc1cc(C)c(C=C(C)C(=O)c2c(O)cc(C(C)CC/C=C/NC(=O)OC)oc2=O)s1 (mixture of isomers) [APY75, methyl (E)-5-(3-((E/Z)-3-(5-butyl-3-methylthiophen-2-yl)-2-methylacryloyl)-4-hydroxy-2-oxo-2H-pyran-6-yl)hex-1-enylcarbamate] | 9 | 80 | 60 | 0.3 | 4 | 0.1 | 30 | 0.8 | 10 | – | 6 | 6 | 3
13 | CCCCc1ccc(C=C(C)C(=O)c2c(O)cc(C(C)CC/C=C/NC(=O)OC)oc2=O)c(C)c1 (mixture of isomers) [APY87, methyl ((1E)-5-(3-(3-(4-butyl-2-methylphenyl)-2-methylacryloyl)-4-hydroxy-2-oxo-2H-pyran-6-yl)hex-1-en-1-yl)carbamate] | 10 | 70 | 30 | 1 | > 40 | 0.2 | > 50 | – | – | – | – | – | –
14 | COC(=O)N/C=C/CCC(C)c1cc(O)c(C(=O)C(C)=Cc2sc(CCC(C)C)cc2C)c(=O)o1 (mixture of isomers) [APY76, methyl (E)-5-(3-((E/Z)-3-(5-isopentyl-3-methylthiophen-2-yl)-2-methylacryloyl)-4-hydroxy-2-oxo-2H-pyran-6-yl)hex-1-enylcarbamate] | 3 | 80 | 50 | 0.2 | 4 | 0.09 | 30 | 0.4 | 10 | – | 6 | 6 | 3
